This note sets out measurements from US10420787B2, “Crystal-water-free calcium dibutyryladenosine cyclophosphate crystal form and preparation method and application thereof” (SPH NO.1 BIOCHEMICAL & PHARMACEUTICAL CO., LTD., priority 2014, dated 2019).

Several values for one entry are separate records, joined by “and”; a condition that tells them apart may be missing. Equal values may be shown once.

Data set [1] can be described thus: Long-term observation stability test (16° C., relative humidity 60±5%, 12 months). The class given is physicochemical. Particulars: RH 60±5%; for Related substances (%): HPLC. The text has this:
(§1) Chromatographic conditions include:
(§2) HPLC purity is detected according to the method in the following embodiments.

The nature of data set [2]: Hygrothermal acceleration stability test (30° C., relative humidity 75±5%, 6 months). The class given is physicochemical. As to conditions: RH 75±5%; for Related substances (%): HPLC.
From the text: as §1, §2

For `CCCC(=O)Nc1ncnc2c1ncn2[C@@H]1O[C@@H]2COP(=O)([O-])O[C@H]2[C@H]1OC(=O)CCC.CCCC(=O)Nc1ncnc2c1ncn2[C@@H]1O[C@@H]2COP(=O)([O-])O[C@H]2[C@H]1OC(=O)CCC.[Ca+2]` [Anhydrouscalcium dibutyryladenosine cyclophosphate solids] [anhydrous calcium dibutyryladenosine cyclophosphate, reference compound], the “Content (%)” value is recorded as 954% in data set [1] (0 months); 95.0% in data set [1] (3 months); 94.4% in data set [1] (9 months); 94.1% in data set [1] (12 months); 94.8% in data set [2] (1 month); 94.2% in data set [2] (2 months). Also, the “Content (%)” value turned out to be 93.5% in data set [2] (3 months) and 93.0% in data set [2] (6 months). Moreover, the “Related substances (%)” value turned out to be 4.3% in data set [1] (0 months); 4.6% in data set [1] (3 months); 4.8% in data set [1] (6 months); 5.2% in data set [1] (9 months); 5.4% in data set [1] (12 months); 4.3% in data set [2] (0 months). In addition, the “Related substances (%)” value in data set [2] (1 month) is 4.9%; in data set [2] (2 months) it was 5.5%; in data set [2] (3 months), 6.0%; in data set [2] (6 months), 6.7%.
`CCCC(=O)Nc1ncnc2c1ncn2[C@@H]1O[C@@H]2COP(=O)([O-])O[C@H]2[C@H]1OC(=O)CCC.CCCC(=O)Nc1ncnc2c1ncn2[C@@H]1O[C@@H]2COP(=O)([O-])O[C@H]2[C@H]1OC(=O)CCC.[Ca+2]` [calcium dibutyryladenosine cyclophosphate]: the “Content (%)” value was 95.8% and 96.2% and 95.2% in data set [1] (0 months); 95.5% and 96.1% and 95.3% in data set [1] (3 months); 95.6% and 96.0% and 95.1% in data set [1] (6 months); 95.5% and 95.9% and 95.0% in data set [1] (9 months); 95.3% and 95.8% and 94.9% in data set [1] (12 months); 95.8% and 96.2% and 95.2% in data set [2] (0 months). Moreover, the “Content (%)” value in data set [2] (1 month) is 95.3% and 95.8% and 95.0%; in data set [2] (2 months), 95.1% and 95.4%; in data set [2] (3 months) it was 94.9% and 95.0% and 94.7%; in data set [2] (6 months) it was 94.5% and 94.7% and 94.3%. Further, the “Related substances (%)” value is 3.8% and 4.1% and 4.0% in data set [1] (0 months); 3.7% and 4.2% and 4.1% in data set [1] (3 months); 3.8% and 4.1% and 4.3% in data set [1] (6 months); 3.7% and 4.0% and 4.2% in data set [1] (9 months); 4.0% and 4.3% and 4.4% in data set [1] (12 months); 3.8% and 4.1% and 4.0% in data set [2] (0 months). The “Related substances (%)” value in data set [2] (1 month) is 3.9% and 4.0% and 4.1%; in data set [2] (2 months), 4.0% and 4.1%; in data set [2] (3 months), 4.2% and 4.3%; in data set [2] (6 months), 4.5% and 4.7% and 4.6%.
In the case of “calcium dibutyryladenosine cyclophosphate 2.3 hydrates [DBC-Ca•2.3H2O crystals, reference compound]”, the “Content (%)” value is on record as 90.2% in data set [1] (0 months); 90.0% in data set [1] (3 months); 89.9% in data set [1] (6 months); 89.7% in data set [1] (9 months); 89.6% in data set [1] (12 months); 90.2% in data set [2] (0 months). In addition, the “Content (%)” value in data set [2] (1 month) amounted to 90.1%; in data set [2] (2 months) it was 89.8%; in data set [2] (3 months), 89.7%; in data set [2] (6 months), 89.3%. Further, the “Related substances (%)” value is on record as 5.3% in data set [1] (0 months); 5.3% in data set [1] (3 months); 5.5% in data set [1] (6 months); 5.6% in data set [1] (9 months); 5.9% in data set [1] (12 months); 5.3% in data set [2] (0 months). Moreover, the “Related substances (%)” value in data set [2] (1 month) stood at 5.5%; in data set [2] (2 months), 5.8%; in data set [2] (3 months) it was 5.9%; in data set [2] (6 months), 6.1%.
